In patent EP0729956B1, “Benzothiophene compounds, intermediates, compositions, and methods” (ELI LILLY AND COMPANY, priority 1995, dated 1996):
Where a name gives a salt, the structure may show the parent alone. Read-outs that look alike come from different tables or passages of the source.

Key:
ovariectomized rats [1] = test system: ovariectomized rats; design: species or system Sprague Dawley rats; settings: rat, in vivo; for Uterine EPO (V. max): po
Text: (§1) Seventy-five day old female Sprague Dawley rats (weight range of 200 to 225g) were obtained from Charles River Laboratories (Portage, MI). The animals were either bilaterally ovariectomized (OVX) or exposed to a Sham surgical procedure at Charles River Laboratories, and then shipped after one week. Upon arrival, they were housed in metal hanging cages in groups of 3 or 4 per cage and had ad libitum access to food (calcium content approximately 0.5%) and water for one week. Room temperature was maintained at 22.2° ± 1.7° C with a minimum relative humidity of 40%. The photoperiod in the room was 12 hours light and 12 hours dark.
(§2) After a one week acclimation period (therefore, two weeks post-OVX) daily dosing with test compound was initiated. 17a-ethynyl estradiol or the test compound were given orally, unless otherwise stated, as a suspension in 1% carboxymethylcellulose or dissolved in 20% cyclodextrin. Animals were dosed daily for 4 days. Following the dosing regimen, animals were weighed and anesthetized with a ketamine: Xylazine (2:1, V:V) mixture and a blood sample was collected by cardiac puncture. The animals were then sacrificed by asphyxiation with CO2, the uterus was removed through a midline incision, and a wet uterine weight was determined.
Uteri were kept at 4° C until time of enzymatic analysis. The uteri were then homogenized in 50 volumes of 50 mM Tris buffer (pH - 8.0) containing 0.005% Triton X-100. Upon addition of 0.01% hydrogen peroxide and 10 mM O-phenylenediamine (final concentrations) in Tris buffer, increase in absorbance was monitored for one minute at 450 nm. The presence of eosonophils in the uterus is an indication of estrogenic activity of a compound. The maximal velocity of a 15 second interval was determined over the initial, linear portion of the reaction curve.

[2] = test system: ovariectomized test animals; assay: Osteoporosis Test Procedure (OVX rat, 35-day dosing, distal femur metaphysis X-ray image analysis); format: in vivo, Sprague Dawley rats; settings: OVX rats, daily for 35 days; for Distal Femur Metaphysis (X-ray Image Analysis-Gray Score): mean ± SEM
Text: as §1
Following the General Preparation Procedure, infra, the rats were treated daily for 35 days (6 rats per treatment group) and sacrificed by carbon dioxide asphyxiation on the 36th day. The 35 day time period was sufficient to allow maximal reduction in bone density, measured as described herein. At the time of sacrifice, the uteri were removed, dissected free of extraneous tissue, and the fluid contents were expelled before determination of wet weight in order to confirm estrogen deficiency associated with complete ovariectomy. […] The uteri were then placed in 10% neutral buffered formalin to allow for subsequent histological analysis.
The right femurs were excised and digitilized x-rays generated and analyzed by an image analysis program (NIH image) at the distal metaphysis. The proximal aspect of the tibiae from these animals were also scanned by quantitative computed tomography.
In accordance with the above procedures, compounds of the present invention and ethynyl estradiol (EE2) in 20% hydroxypropyl b-cyclodextrin were orally administered to test animals. Distal femur metaphysis data presented in Tables 2 and 3 below are the results of formula I compound treatments compared to intact and ovariectomized test animals. Results are reported as the mean ± the standard error of the mean.

ovariectomized rats [3] = assay: Serum cholesterol analysis (OVX rat, 4-day dosing); format: in vivo, Sprague Dawley rats
Text: as §1, §2
Blood samples were allowed to clot at room temperature for 2 hours, and serum was obtained following centrifugation for 10 minutes at 3000 rpm. Serum cholesterol was determined using a Boehringer Mannheim Diagnostics high performance cholesterol assay. Briefly the cholesterol was oxidized to cholest-4-en-3-one and hydrogen peroxide. The hydrogen peroxide was then reacted with phenol and 4-aminophenazone in the presence of peroxidase to produce a p-quinone imine dye, which was read spectrophotemetrically at 500 nm. Cholesterol concentration was then calculated against a standard curve. The entire assay was automated using a Biomek Automated Workstation.

[4] = Table 3, oral, dose 0.1 mg/kg, OVX control 6.2 ± 1.4, Sham 31.1 ± 6.3
[5] = Rattus norvegicus, po, 96 h, daily for 4 days, read-out: Serum Cholesterol (% decrease vs. OVX)

Uterine EPO (V. max) (ovariectomized rats [1]; 0.1 mg/kg) | Uterine EPO (V. max) (ovariectomized rats [1]; 1 mg/kg) | Uterine EPO (V. max) (ovariectomized rats [1]; 0.01 mg/kg) | SMILES | inhibition in vivo at 0.1 mg/kg (ovariectomized rats [3]; [5]) [%] | inhibition in vivo at 1 mg/kg (ovariectomized rats [3]; [5]) [%] | inhibition in vivo at 0.01 mg/kg (ovariectomized rats [3]; [5]) [%] | other results
308.1 |  |  | C#C[C@]1(O)CC[C@H]2[C@@H]3CCc4cc(O)ccc4[C@H]3CC[C@@]21C [EE2, 17a-ethynyl estradiol, reference compound] | 94.8 |  |  | eosinophil infiltration into the uterus (in words) (ovariectomized rats [1]): substantial, expected increase in eosinophil infiltration; bone loss / femur density after ovariectomy (in words) ([2]; oral): prevented this loss; Distal Femur Metaphysis (X-ray Image Analysis-Gray Score) ([2]; Table 2, oral in 20% hydroxypropyl b-cyclodextrin, dose 0.1 mg/kg, OVX control 8.1 ± 1.8, Sham 27.2 ± 6.0): 11.5 ± 2.9∗; Distal Femur Metaphysis (X-ray Image Analysis-Gray Score) [2, 4]: 17.8 ± 3.5; serum cholesterol compared to the ovariectomized control animals (in words) (ovariectomized rats [3]; oral, 4 days, EE2 at 0.1 mg/kg/day): caused a decrease in serum cholesterol
3.9 | 4.8 |  | Oc1ccc(-c2sc3ccccc3c2Oc2ccc(OCCN3CCCCCC3)cc2)cc1 [Example 4, [3-[4-[2-(1-hexamethyleneimino)ethoxy]phenoxy]-2-(4-hydroxypbenyl)]benzo[b]thiophene] | 53.7 | 62.1 |  | Uterine EPO (V. max) (ovariectomized rats [1]; 10 mg/kg): 3.0; inhibition in vivo at 10 mg/kg (ovariectomized rats [3]; [5]): 65.3%
7.2 | 54.6 |  | CCN(CC)CCOc1ccc(Oc2c(-c3ccc(O)cc3)sc3ccccc23)cc1 [Example 5, [3-[4-[2-(1-N,N-diethylamino)ethoxy]phenoxy]-2-(4-bydroxyphenyl)]benzo[b]thiophene] | 67.2 | 67.7 |  | Uterine EPO (V. max) (ovariectomized rats [1]; 10 mg/kg): 59.4; inhibition in vivo at 10 mg/kg (ovariectomized rats [3]; [5]): 60.2%
4.8 | 4.5 |  | c1ccc(-c2sc3ccccc3c2Oc2ccc(OCCN3CCCCC3)cc2)cc1 [Example 7, [3-[4-[2-(1-piperidinyl)ethoxy]phenoxy]-2-(phenyl)]benzo [b]thiophene hydrochloride] | 56.2 | 42.6 |  | Uterine EPO (V. max) (ovariectomized rats [1]; 5 mg/kg): 4.8; inhibition in vivo at 5 mg/kg (ovariectomized rats [3]; Rattus norvegicus, po, 96 h, daily for 4 days, dose 5.0 mg/kg, read-out: Serum Cholesterol (% decrease vs. OVX)): 29.5%
3.0 |  | 0.9 | Oc1ccc(-c2sc3cc(O)ccc3c2Oc2ccc(OCCN3CCCCC3)cc2)cc1 [Example 20, [6-hydroxy-3-[4-[2-(1-piperidinyl)ethoxy]-phenoxy]-2-(4-hydroxyphenyl)]benzo [b]thiophene hydrochloride] |  |  |  | Uterine EPO (V. max) (ovariectomized rats [1]; 0.05 mg/kg): 3.0; inhibition in vivo at 0.05 mg/kg (ovariectomized rats [3]; Rattus norvegicus, po, 96 h, daily for 4 days, dose 0.05 mg/kg, read-out: Serum Cholesterol (% decrease vs. OVX)): 35.9%
0.9 | 29.4 | 3.6 | Oc1ccc(-c2sc3cc(O)ccc3c2Oc2ccc(OCCN3CCOCC3)cc2)cc1 [Example 24, [6-Hydroxy-3-[4-[2-(morpholino)ethoxy]phenoxy]-2-(4-hydroxyphenyl)]benzo[b]thiophene hydrochloride] | 46.4 | 79.3 | 23.7 | Distal Femur Metaphysis (X-ray Image Analysis-Gray Score) [2, 4]: 18.3 ± 2.6∗; Distal Femur Metaphysis (X-ray Image Analysis-Gray Score) ([2]; Table 3, oral, dose 1.0 mg/kg, OVX control 6.2 ± 1.4, Sham 31.1 ± 6.3): 19.6 ± 2.3∗; Distal Femur Metaphysis (X-ray Image Analysis-Gray Score) ([2]; Table 3, oral, dose 3.0 mg/kg, OVX control 6.2 ± 1.4, Sham 31.1 ± 6.3): 17.1 ± 5.5
3.3 | 36.0 | 3.0 | CCN(CC)CCCOc1ccc(Oc2c(-c3ccc(O)cc3)sc3cc(O)ccc23)cc1 [Example 25, [6-Hydroxy-3-[4-[3-(1-N,N-diethylamino)propoxy]phenoxy]-2-(4-hydroxyphenyl)]benzo [b]thiophene hydrochloride] | 67.6 | 73.9 | 13.1 | 
29.1 | 175.1 | 4.8 | CC(C)N(CCOc1ccc(Oc2c(-c3ccc(O)cc3)sc3cc(O)ccc23)cc1)C(C)C [Example 26, [6-Hydroxy-3-[4-[2-(1-N,N-diisopropylamino)-ethoxy]phenoxy]-2-(4-hydroxyphenyl)]benzo[b]thiophene hydrochloride] | 45.2 | 62.7 | 29 | 
4.8 | 52.5 | 3.3 | Oc1ccc(-c2sc3cc(O)ccc3c2Oc2ccc(OCCCN3CCCCC3)cc2)cc1 [Example 27, [6-Hydroxy-3-[4-[3-(piperidino)propoxy]phenoxy]-2-(4-hydroxyphenyl)]benzo[b]thiophene hydrochloride] | 50.8 | 76.5 | 12.2 | 
4.8 | 6.0 | 3.3 | O=C(Oc1ccc(-c2sc3cc(OC(=O)c4ccccc4)ccc3c2Oc2ccc(OCCN3CCCCC3)cc2)cc1)c1ccccc1 [Example 43, [6-Benzoyloxy-3-[4-[2-(1-piperidinyl)-ethoxy]phenoxy]-2-(4-benzoyloxyphenyl)]benzo[b]thiophene hydrochloride] | 43.8 | 39.4 | 9.2 | 
88.5 | 94.5 | 3.6 | CCS(=O)(=O)Oc1ccc(-c2sc3cc(OS(=O)(=O)CC)ccc3c2Oc2ccc(OCCN3CCCCC3)cc2)cc1 [Example 44, [6-Ethylsulfonyloxy-3-[4-[2-(1-piperidinyl)ethoxy]-phenoxy]-2-(4-ethylsulfonyloxyphenyl)] benzo[b]thiophene hydrochloride] | 43.8 | 67.4 | 12.6 | 
